Assay [1] has as its target T1, Fatty acid hydroperoxide lyase, chloroplastic (Solanum lycopersicum, UniProt K4CF70).
T1 sequence (K4CF70 whole entry): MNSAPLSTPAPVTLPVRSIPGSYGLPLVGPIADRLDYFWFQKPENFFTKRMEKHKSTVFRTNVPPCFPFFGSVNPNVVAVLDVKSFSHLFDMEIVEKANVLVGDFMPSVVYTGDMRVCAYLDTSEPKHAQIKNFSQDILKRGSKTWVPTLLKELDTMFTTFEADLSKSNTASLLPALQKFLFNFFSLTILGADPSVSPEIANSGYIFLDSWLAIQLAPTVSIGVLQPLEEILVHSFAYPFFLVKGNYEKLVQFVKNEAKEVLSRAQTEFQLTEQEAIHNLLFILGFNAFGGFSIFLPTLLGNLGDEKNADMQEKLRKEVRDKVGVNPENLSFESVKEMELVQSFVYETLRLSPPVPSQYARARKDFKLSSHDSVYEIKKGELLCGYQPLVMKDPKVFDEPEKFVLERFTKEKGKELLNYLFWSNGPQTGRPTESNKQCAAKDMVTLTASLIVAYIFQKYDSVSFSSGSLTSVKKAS
As to the kind of experiment: Binding affinity to recombinant Solanum lycopersicum (tomato) fatty acid 13-hydroperoxide lyase by optical difference spectroscopy.

Assay [2] concerns the target T1, Fatty acid hydroperoxide lyase, chloroplastic. The experiment in a line: Inhibition of recombinant Solanum lycopersicum (tomato) fatty acid 13-hydroperoxide lyase using (13S)-HPOT substrate by spectrophotometry.

pIC50, pKd: −log10 of the molar value.

`Clc1ccc(C(Cn2ccnc2)OCc2ccccc2)c(Cl)c1` (centres undefined): the pKd (as a rule, the Kd on a negative log10 scale, so that one unit is a factor of ten) in assay [1] is 4.87. Further, the pIC50 (commonly the negative decadic logarithm of the IC50, by convention in mol/L) in assay [2] is 4.41.

Regarding `Clc1ccc(C(Cn2ccnc2)OCc2ccccc2Cl)c(Cl)c1` (centres undefined), the pIC50 in assay [2] is less than 4.00.

As to `Clc1cccc(COC(Cn2ccnc2)c2ccc(Cl)cc2Cl)c1` (centres undefined), in assay [2], the pIC50 was less than 4.00.

On to `Clc1ccc(C(Cn2ccnc2)OCc2ccc(Cl)nc2)c(Cl)c1` (centres undefined), for which the pIC50 in assay [2] was less than 4.00.

With `Clc1ccc(C(Cn2ccnc2)OCc2cccc(Cl)c2Cl)c(Cl)c1` (centres undefined), the pIC50 in assay [2] is 4.34.

Regarding `Clc1ccc(C(Cn2ccnc2)OCc2ccc(Cl)c(Cl)c2)c(Cl)c1` (centres undefined), the pIC50 in assay [2] was less than 4.00.

For `Fc1ccc(COC(Cn2ccnc2)c2ccc(Cl)cc2Cl)c(F)c1` (centres undefined), the pIC50 in assay [2] was less than 4.00.

On to `Fc1ccc(F)c(COC(Cn2ccnc2)c2ccc(Cl)cc2Cl)c1` (centres undefined), for which the pIC50 in assay [2] is less than 4.00.

For the compound `Fc1ccc(COC(Cn2ccnc2)c2ccc(Cl)cc2Cl)cc1F` (centres undefined), the pIC50 in assay [2] was less than 4.00.

On to `Fc1cc(F)cc(COC(Cn2ccnc2)c2ccc(Cl)cc2Cl)c1` (centres undefined), for which, in assay [2], the pIC50 is less than 4.00.

With `Clc1ccc(C(Cn2ccnc2)OCc2c(Cl)cccc2Cl)c(Cl)c1` (centres undefined) [ISOCONAZOLE], the pIC50 in assay [2] is less than 4.00.

For `Clc1ccc(COC(Cn2ccnc2)c2ccc(Cl)cc2Cl)c(Cl)c1` (centres undefined) [MICONAZOLE], the pIC50 in assay [2] is 4.19.

In the case of `CC(Cc1ccc(O)c(O)c1)C(C)Cc1ccc(O)c(O)c1` (centres undefined) [NORDIHYDROGUAIARETIC ACID], the negative-log IC50 (pIC50) in assay [2] was 4.30.

(Values after ChEMBL document CHEMBL3044638, “Biological evaluation of imidazole derivatives as inhibitors of hydroperoxide lyase, a key enzyme in plant volatile biosynthesis” (J Pestic Sci, 2011).)
